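Here, GI50 denotes the concentration required for 50% inhibition of growth. The concentration for full growth arrest is given as TGI.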
Experiments:
Assay in all cases: growth of human tumour cells (NCI), 384-well format
786-0 renal = system: 786-0 renal
A498 renal = system: A498 renal
A549 NSCLC = system: A549 NSCLC
ACHN renal = system: ACHN renal
BT-549 breast = system: BT-549 breast
CAKI-1 renal = system: CAKI-1 renal
CCRF-CEM leukemia = system: CCRF-CEM leukemia
COLO 205 colon = system: COLO 205 colon
DU-145 prostate = system: DU-145 prostate
HCC-2998 colon = system: HCC-2998 colon
HCT-116 colon = system: HCT-116 colon
HCT-15 colon = system: HCT-15 colon
HL-60(TB) leukemia = system: HL-60(TB) leukemia
HOP-62 NSCLC = system: HOP-62 NSCLC
HOP-92 NSCLC = system: HOP-92 NSCLC
HT29 colon = system: HT29 colon
IGROV1 ovarian = system: IGROV1 ovarian
K-562 leukemia = system: K-562 leukemia
KM12 colon = system: KM12 colon
LOX IMVI melanoma = system: LOX IMVI melanoma
M14 melanoma = system: M14 melanoma
MALME-3M melanoma = system: MALME-3M melanoma
MCF7 breast = system: MCF7 breast
MDA-MB-231 breast = system: MDA-MB-231 breast
MDA-MB-435 melanoma = system: MDA-MB-435 melanoma
MDA-MB-468 breast = system: MDA-MB-468 breast
MOLT-4 leukemia = system: MOLT-4 leukemia
NCI-H226 lung = system: NCI-H226 lung
NCI-H23 lung = system: NCI-H23 lung
NCI-H322M lung = system: NCI-H322M lung
NCI-H460 NSCLC = system: NCI-H460 NSCLC
NCI-H522 lung = system: NCI-H522 lung
NCI/ADR-RES ovarian = system: NCI/ADR-RES ovarian
OVCAR-3 ovarian = system: OVCAR-3 ovarian
OVCAR-4 ovarian = system: OVCAR-4 ovarian
OVCAR-5 ovarian = system: OVCAR-5 ovarian
OVCAR-8 ovarian = system: OVCAR-8 ovarian
PC-3 prostate = system: PC-3 prostate
RPMI-8226 leukemia = system: RPMI-8226 leukemia
RXF 393 renal = system: RXF 393 renal
SF-268 CNS = system: SF-268 CNS
SF-295 CNS = system: SF-295 CNS
SF-539 CNS = system: SF-539 CNS
SK-MEL-2 melanoma = system: SK-MEL-2 melanoma
SK-MEL-28 melanoma = system: SK-MEL-28 melanoma
SK-MEL-5 melanoma = system: SK-MEL-5 melanoma
SK-OV-3 ovarian = system: SK-OV-3 ovarian
SN12C renal = system: SN12C renal
SNB-19 CNS = system: SNB-19 CNS
SR leukemia = system: SR leukemia
SW-620 colon = system: SW-620 colon
T-47D breast = system: T-47D breast
TK-10 renal = system: TK-10 renal
U251 glioblastoma = system: U251 glioblastoma
UACC-257 melanoma = system: UACC-257 melanoma
UACC-62 melanoma = system: UACC-62 melanoma
UO-31 renal = system: UO-31 renal

With `Cc1cc2c(C(=O)NC[C@H](C)c3ccccc3)c(O)c(O)cc2c(O)c1-c1c(C)cc2c(C(=O)NC[C@H](C)c3ccccc3)c(O)c(O)cc2c1O` as the compound, how does the GI50 ([…]-0 renal) read?
Its GI50 is 1170 nM.

What about the TGI (786-0 renal) of the same compound?
The TGI was 2800 nM.

And the GI50 (A498 renal)?
The GI50 was 286 nM.

What about the TGI (A498 renal) of the same compound?
The TGI was 818 nM.

What about the GI50 (A549 NSCLC) of the same compound?
The GI50 was 348 nM.

What about the TGI (A549 NSCLC) of the same compound?
The TGI was 1390 nM.

What about the GI50 (ACHN renal) of the same compound?
The GI50 was 1840 nM.

What about the TGI (ACHN renal) of the same compound?
The TGI was 4040 nM.

And the GI50 (BT-549 breast)?
The GI50 was 243 nM.

And the TGI (BT-549 breast)?
Its TGI is 582 nM.

What about the GI50 (CAKI-1 renal) of the same compound?
The GI50 was 657 nM.

And the TGI (CAKI-1 renal)?
The TGI was 2500 nM.

What about the GI50 (CCRF-CEM leukemia) of the same compound?
Its GI50 is 243 nM.

And the TGI (CCRF-CEM leukemia)?
The TGI was 514 nM.

What about the GI50 (COLO 205 colon) of the same compound?
The GI50 was 1940 nM.

And the TGI (COLO 205 colon)?
Its TGI is 4290 nM.

And the GI50 (DU-145 prostate)?
Its GI50 is 382 nM.

What about the TGI (DU-145 prostate) of the same compound?
Its TGI is 1980 nM.

And the GI50 (HCC-2998 colon)?
The GI50 was 1380 nM.

What about the TGI (HCC-2998 colon) of the same compound?
The TGI was 3200 nM.

What about the GI50 (HCT-116 colon) of the same compound?
The GI50 was 274 nM.

And the TGI (HCT-116 colon)?
The TGI was 685 nM.

What about the GI50 (HCT-15 colon) of the same compound?
The GI50 was 545 nM.

What about the TGI (HCT-15 colon) of the same compound?
Its TGI is 2880 nM.

What about the GI50 (HL-60(TB) leukemia) of the same compound?
The GI50 was 487 nM.

What about the TGI (HL-60(TB) leukemia) of the same compound?
Its TGI is 1390 nM.

And the GI50 (HOP-62 NSCLC)?
The GI50 was 666 nM.

What about the TGI (HOP-62 NSCLC) of the same compound?
Its TGI is 2090 nM.

And the GI50 (HOP-92 NSCLC)?
The GI50 was 461 nM.

And the TGI (HOP-92 NSCLC)?
Its TGI is 1560 nM.

And the GI50 (HT29 colon)?
Its GI50 is 1230 nM.

And the TGI (HT29 colon)?
Its TGI is 3830 nM.

What about the GI50 (IGROV1 ovarian) of the same compound?
The GI50 was 495 nM.

And the TGI (IGROV1 ovarian)?
The TGI was 2920 nM.

And the GI50 (K-562 leukemia)?
The GI50 was 328 nM.

What about the TGI (K-562 leukemia) of the same compound?
The TGI was 1210 nM.

What about the GI50 (KM12 colon) of the same compound?
Its GI50 is 390 nM.

And the TGI (KM12 colon)?
Its TGI is 1360 nM.

What about the GI50 (LOX IMVI melanoma) of the same compound?
Its GI50 is 1740 nM.

And the TGI (LOX IMVI melanoma)?
The TGI was 3270 nM.

And the GI50 (M14 melanoma)?
Its GI50 is 394 nM.

What about the TGI (M14 melanoma) of the same compound?
Its TGI is 1360 nM.

And the GI50 (MALME-3M melanoma)?
Its GI50 is 1590 nM.

What about the TGI (MALME-3M melanoma) of the same compound?
The TGI was 4430 nM.

And the GI50 (MCF7 breast)?
The GI50 was 309 nM.

And the TGI (MCF7 breast)?
The TGI was 1180 nM.

What about the GI50 (MDA-MB-231 breast) of the same compound?
Its GI50 is 654 nM.

And the TGI (MDA-MB-231 breast)?
The TGI was 2390 nM.

What about the GI50 (MDA-MB-435 melanoma) of the same compound?
The GI50 was 540 nM.

What about the TGI (MDA-MB-435 melanoma) of the same compound?
Its TGI is 2700 nM.

What about the GI50 (MDA-MB-468 breast) of the same compound?
The GI50 was 187 nM.

And the TGI (MDA-MB-468 breast)?
Its TGI is 374 nM.

What about the GI50 (MOLT-4 leukemia) of the same compound?
Its GI50 is 218 nM.

And the TGI (MOLT-4 leukemia)?
The TGI was 404 nM.

And the GI50 (NCI-H226 lung)?
Its GI50 is 1130 nM.

And the TGI (NCI-H226 lung)?
The TGI was 2600 nM.

And the GI50 (NCI-H23 lung)?
Its GI50 is 229 nM.

What about the TGI (NCI-H23 lung) of the same compound?
The TGI was 448 nM.

What about the GI50 (NCI-H322M lung) of the same compound?
The GI50 was 1760 nM.

What about the TGI (NCI-H322M lung) of the same compound?
Its TGI is 8770 nM.

And the GI50 (NCI-H460 NSCLC)?
The GI50 was 204 nM.

And the TGI (NCI-H460 NSCLC)?
The TGI was 424 nM.

And the GI50 (NCI-H522 lung)?
Its GI50 is 207 nM.

What about the TGI (NCI-H522 lung) of the same compound?
The TGI was 396 nM.

What about the GI50 (NCI/ADR-RES ovarian) of the same compound?
Its GI50 is 2150 nM.

What about the TGI (NCI/ADR-RES ovarian) of the same compound?
The TGI was 5330 nM.

And the GI50 (OVCAR-3 ovarian)?
Its GI50 is 613 nM.

And the TGI (OVCAR-3 ovarian)?
The TGI was 2080 nM.

And the GI50 (OVCAR-4 ovarian)?
Its GI50 is 935 nM.

And the TGI (OVCAR-4 ovarian)?
Its TGI is 4460 nM.

And the GI50 (OVCAR-5 ovarian)?
Its GI50 is 558 nM.

And the TGI (OVCAR-5 ovarian)?
Its TGI is 1980 nM.

And the GI50 (OVCAR-8 ovarian)?
The GI50 was 1120 nM.

And the TGI (OVCAR-8 ovarian)?
The TGI was 2490 nM.

What about the GI50 (PC-3 prostate) of the same compound?
The GI50 was 1370 nM.

What about the TGI (PC-3 prostate) of the same compound?
Its TGI is 2750 nM.

And the GI50 (RPMI-8226 leukemia)?
Its GI50 is 238 nM.

And the TGI (RPMI-8226 leukemia)?
The TGI was 447 nM.

What about the GI50 (RXF 393 renal) of the same compound?
Its GI50 is 201 nM.

And the TGI (RXF 393 renal)?
Its TGI is 625 nM.

What about the GI50 (SF-268 CNS) of the same compound?
The GI50 was 523 nM.

What about the TGI (SF-268 CNS) of the same compound?
The TGI was 1810 nM.

What about the GI50 (SF-295 CNS) of the same compound?
Its GI50 is 345 nM.

And the TGI (SF-295 CNS)?
The TGI was 1120 nM.

And the GI50 (SF-539 CNS)?
Its GI50 is 233 nM.

And the TGI (SF-539 CNS)?
The TGI was 579 nM.

And the GI50 (SK-MEL-2 melanoma)?
The GI50 was 240 nM.

What about the TGI (SK-MEL-2 melanoma) of the same compound?
The TGI was 1030 nM.

What about the GI50 (SK-MEL-28 melanoma) of the same compound?
The GI50 was 606 nM.

And the TGI (SK-MEL-28 melanoma)?
Its TGI is 2400 nM.

And the GI50 (SK-MEL-5 melanoma)?
The GI50 was 378 nM.

And the TGI (SK-MEL-5 melanoma)?
The TGI was 1580 nM.

What about the GI50 (SK-OV-3 ovarian) of the same compound?
The GI50 was 1500 nM.

And the TGI (SK-OV-3 ovarian)?
Its TGI is 3900 nM.

What about the GI50 (SN12C renal) of the same compound?
Its GI50 is 837 nM.

And the TGI (SN12C renal)?
Its TGI is 2300 nM.

What about the GI50 (SNB-19 CNS) of the same compound?
The GI50 was 413 nM.

And the TGI (SNB-19 CNS)?
Its TGI is 1440 nM.

And the GI50 (SR leukemia)?
The GI50 was 196 nM.

And the TGI (SR leukemia)?
The TGI was 369 nM.

And the GI50 (SW-620 colon)?
Its GI50 is 1480 nM.

And the TGI (SW-620 colon)?
Its TGI is 3620 nM.

What about the GI50 (T-47D breast) of the same compound?
Its GI50 is 382 nM.

And the TGI (T-47D breast)?
The TGI was 1590 nM.

What about the GI50 (TK-10 renal) of the same compound?
The GI50 was 1280 nM.

What about the TGI (TK-10 renal) of the same compound?
Its TGI is 7080 nM.

What about the GI50 (U251 glioblastoma) of the same compound?
Its GI50 is 281 nM.

What about the TGI (U251 glioblastoma) of the same compound?
Its TGI is 723 nM.

What about the GI50 (UACC-257 melanoma) of the same compound?
The GI50 was 1610 nM.

What about the TGI (UACC-257 melanoma) of the same compound?
Its TGI is 3570 nM.

And the GI50 (UACC-62 melanoma)?
Its GI50 is 486 nM.

What about the TGI (UACC-62 melanoma) of the same compound?
The TGI was 1630 nM.

And the GI50 (UO-31 renal)?
The GI50 was 1220 nM.

And the TGI (UO-31 renal)?
The TGI was 2940 nM.

From PubChem BioAssay (NCI)
